In PMC7772087 (Biosensors & Bioelectronics, 2020):

Biological target: T1, NF-κB p50 (Homo sapiens, UniProt P19838)
T1 sequence (P19838 1-968): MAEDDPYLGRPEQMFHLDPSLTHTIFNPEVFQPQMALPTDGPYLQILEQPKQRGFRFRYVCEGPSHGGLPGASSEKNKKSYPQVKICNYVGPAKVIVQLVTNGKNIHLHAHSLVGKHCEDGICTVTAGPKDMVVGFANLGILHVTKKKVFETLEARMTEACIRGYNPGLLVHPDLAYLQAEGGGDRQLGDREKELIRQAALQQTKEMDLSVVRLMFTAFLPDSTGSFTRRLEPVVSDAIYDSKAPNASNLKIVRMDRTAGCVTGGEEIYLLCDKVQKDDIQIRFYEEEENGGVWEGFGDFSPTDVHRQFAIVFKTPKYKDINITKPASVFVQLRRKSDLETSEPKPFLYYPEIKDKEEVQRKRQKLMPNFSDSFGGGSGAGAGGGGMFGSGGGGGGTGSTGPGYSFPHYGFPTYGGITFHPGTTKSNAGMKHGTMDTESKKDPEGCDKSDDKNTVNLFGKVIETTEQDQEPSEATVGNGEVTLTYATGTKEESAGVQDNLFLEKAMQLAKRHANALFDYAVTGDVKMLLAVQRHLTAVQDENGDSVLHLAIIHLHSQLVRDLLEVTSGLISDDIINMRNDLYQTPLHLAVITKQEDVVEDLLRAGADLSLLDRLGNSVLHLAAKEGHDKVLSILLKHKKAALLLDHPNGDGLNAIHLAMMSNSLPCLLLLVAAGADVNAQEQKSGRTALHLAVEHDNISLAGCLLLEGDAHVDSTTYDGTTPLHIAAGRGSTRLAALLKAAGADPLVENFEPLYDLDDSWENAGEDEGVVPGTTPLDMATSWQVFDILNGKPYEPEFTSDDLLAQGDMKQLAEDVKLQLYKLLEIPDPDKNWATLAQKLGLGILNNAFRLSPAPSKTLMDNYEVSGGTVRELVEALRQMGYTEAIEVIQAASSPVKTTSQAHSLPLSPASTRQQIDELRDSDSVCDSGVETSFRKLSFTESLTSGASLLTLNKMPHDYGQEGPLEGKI
Assay: Electrochemiluminescence biosensor of recombinant p50 binding to dsDNA

IC50: 0.83 nM
Structure (SMILES): O=C(NC1=CC(=O)[C@H]2O[C@H]2[C@H]1O)c1ccccc1O [(−)-DHMEQ]
